# In patent US20070203212A1, “METHOD OF TREATING OSTEOARTHRITIS” (WARNER-LAMBERT COMPANY, priority 2002, published 2007):
# Entries after “also recorded” stand apart in the source; their conditions may differ. Marks after values point to notes of the source that are not given here.
# What was measured:
# [1] = test system: monosodium iodoacetate (MIA)-induced osteoarthritis; assay: MIA rat model, chronic oral b.i.d. dosing: change in hind paw weight distribution (joint function limitation / joint pain); assay type: in vivo; conditions: for IJFL (Inhibition of Joint Function Limitation) (% +/− SEM): four week study; for change in hind paw weight distribution: Days 7, 14 and 28 (FIG. 3); for inhibition of change in hind paw weight distribution: 30 mg/kg PO b.i.d.
# Procedure: It should be appreciated that in Biological Methods 1, 2, 4, and 5 below, hind paw weight bearing differentials between the paw of the limb having the control joint (in animals administered test compound vehicle only) and the paw of the limb having the contralateral test joint (in control or inducement animals administered test compound vehicle only and in treatment animals administered test compound dissolved in test compound vehicle) were determined using an incapacitance tester, model 2KG (Linton Instrumentation, Norfolk, United Kingdom). The incapacitance tester has a chamber on top with an outwardly sloping front wall that supports a rat's front limbs, and two weight sensing pads, one for each hind paw, that facilitates this determination. The hind paw weight bearing differentials were expressed in grams and calculated as follows: (the average weight in grams placed on the control limb minus the average weight in grams placed on the contralateral test limb for each of the inducement or treatment animals) minus (the average weight in grams placed on the control limb minus the average weight in grams placed on the contralateral test limb for each of the control animals). All results were statistically analyzed by comparing the average results for an induction or treatment group with the average result for its control group at the same time point using analysis of covariance (“ANCOVA”) followed by the Hoehberg's procedure and those with statistical significance had p<0.05 unless otherwise noted.
# Generally, In the MIA Rat model on Day 0, the hind-paw weight differential between the right arthritic joint and the left healthy joint of male Wistar rats (150 g) are determined with an incapacitance tester, model 2KG (Linton Instrumentation, Norfolk, United Kingdom). The incapacitance tester has a chamber on top with an outwardly sloping front wall that supports a rat's front limbs, and two weight sensing pads, one for each hind paw, that facilitates this determination. Then the rats are anesthetized with isofluorine, and the right, hind leg knee joint is injected with 1.0 mg of mono-iodoacetate (“MIA”) through the infrapatellar ligament. Injection of MIA into the joint results in the inhibition of glycolysis and eventual death of surrounding chondrocytes. The rats are further administered either an active compound useful in the invention method, or a pharmaceutically acceptable salt thereof, or vehicle (in the instant case, water) daily for 14 days or 28 days. The substituted dialkyl ether, substituted aryl-alkyl ether, substituted dialkyl thioether, substituted dialkyl ketone, or substituted-alkyl compound useful in the invention method, or a pharmaceutically acceptable salt thereof, is typically administered at a dose of 30 mg of substituted dialkyl ether, substituted aryl-alkyl ether, substituted dialkyl thioether, substituted dialkyl ketone, or substituted-alkyl compound useful in the invention method, or a pharmaceutically acceptable salt thereof, per kilogram of rat per day (30 mg/kg/day), but may be administered at other doses such as, for example, mg/kg/day, 60 mg/kg/day, 90-mg/kg/day, or 100 mg/kg/day according to the requirements of the compound being studied. It is well within the level of ordinary skill in the pharmaceutical arts to determine a proper dosage of an active compound useful in the invention method, or a pharmaceutically acceptable salt thereof, in this model. Administration of the substituted dialkyl ether, substituted aryl-alkyl ether, substituted dialkyl thioether, substituted dialkyl ketone, or substituted-alkyl compound useful in the invention method, or a pharmaceutically acceptable salt thereof, in this model is optionally by oral administration or intravenous administration via an osmotic pump. After 7 and 14 days for a two week study, or 7, 14, and 28 days for a four week study, the hind-paw weight distribution is again determined. […]
# [2] = test system: monosodium iodoacetate (MIA)-induced osteoarthritis; assay: MIA rat model, chronic oral b.i.d. dosing: tibial plateau cartilage erosion analysis; assay type: in vivo; conditions: for Decreased Erosion Size (statistically significant decrease in size of area of joint erosion) / SDCES (Significant Decrease In Cartilage Erosion Severity), Ridit analysis: 28 days; for SDCES (Significant Decrease In Cartilage Erosion Severity), Ridit analysis: calcium salt
# Procedure: In a particular experiment, monosodium iodoacetate (“MIA”) (1 mg/joint) was injected through the infrapatellar ligament of the right knee of anesthetized male, Wistar rats. The contralateral control knee was injected with 50 μL of physiologic saline. The change in hind paw weight distribution, as determined by use of an incapacitance tester, between the right (arthritic) and left (contralateral control) knees was utilized as an index of functional limitation in the arthritic knee. Limitations in joint function were determined on Days 7, 14, and 28 following induction of arthritis. Following sacrifice, erosion severity was determined on the tibial plateaus from the arthritic joint. Histological analysis was also conducted on these samples.
# The ridit analysis was used to determine differences in overall erosion severity. This parameter takes into account both the erosion grade (0=no erosion, I=erosion extending into the superficial or middle layers, or II=deep layer erosion), and area (small, medium and large, quantified by dividing the area of the largest erosion in each score into thirds) simultaneously.
# After administering CI-1027 b.i.d. for 4 weeks, the rats were euthanized by CO2 administration. The soft tissue was removed from the right (arthritic) leg, the joint was disarticulated, and the meniscus was carefully removed to expose the surface of the tibial plateau. The tibia was removed and placed in physiologic saline until erosion analysis was performed. Tibial plateau erosions were analyzed the same day as the sacrifice as follows. Each plateau was dipped in India ink for approximately 30 seconds to help define the erosions, rinsed in saline, and blotted on a paper towel. A stereomicroscope equipped with a digital camera was used to photograph each plateau. The tibial plateaus were photographed and graded separately by two ordinary skilled persons using the following system:
# Grade I=erosion extending into the superficial or middle layers;
# Grade II=deep layer erosion; no cartilage, sub-chondral bone exposed.
# The photographs were transferred to a computer for image analysis using a Zeiss KS 300 Image Analysis System to determine the total erosion area for each grade, expressed in square millimeters (“mm^2”). A RIDIT analysis (see above) was used to determine differences in overall erosion severity. This analysis takes into account both the erosion grade and area (small, medium and large, quantified by dividing the area of the largest erosion in each score into thirds) simultaneously.
# [3] = Blood pressure in normal healthy humans; assay type: in vivo, human
# [4] = 30 mg/kg PO BID, dose-response experiment
smiles,measurement,setting,value
"CC(C)(CCCCOCCCCC(C)(C)C(=O)[O-])C(=O)[O-].[Ca+2] [CI-1027, 6-(5-carboxy-5-methyl-hexyloxy)-2,2-dimethyl-hexanoic acid, calcium salt]",IJFL (Inhibition of Joint Function Limitation) (% +/− SEM),[1]; 3 mg/kg PO BID,3 +/− 156%
same,change in hind paw weight distribution,[1]; 3 mg/kg PO b.i.d.,no statistically significant changes
same,IJFL (Inhibition of Joint Function Limitation) (% +/− SEM),[1]; 10 mg/kg PO BID,36 +/− 9%
same,change in hind paw weight distribution,[1]; 10 mg/kg PO b.i.d.,no statistically significant changes
same,IJFL (Inhibition of Joint Function Limitation) (% +/− SEM),[1]; [4],63 +/− 8^a %
same,IJFL (Inhibition of Joint Function Limitation) (% +/− SEM),"[1]; 30 mg/kg PO BID, single-dose-level experiment (last table row)",60 +/− 8^a %
same,inhibition of change in hind paw weight distribution,"[1]; Day 7, dose-response experiment (FIG. 3), not significant",38±14%
same,inhibition of change in hind paw weight distribution,"[1]; Day 7, first experiment (FIG. 2)",47±8%
same,inhibition of change in hind paw weight distribution,"[1]; Day 14, dose-response experiment (FIG. 3)",50±10%
same,inhibition of change in hind paw weight distribution,"[1]; Day 14, first experiment (FIG. 2)",71±9%
same,inhibition of change in hind paw weight distribution,"[1]; Day 28, dose-response experiment (FIG. 3)",62±8%
same,inhibition of change in hind paw weight distribution,"[1]; Day 28, first experiment (FIG. 2)",60±8%
same,Decreased Erosion Size (statistically significant decrease in size of area of joint erosion),[2]; 3 mg/kg PO BID,No
same,"SDCES (Significant Decrease In Cartilage Erosion Severity), Ridit analysis",[2]; 3 mg/kg PO BID,statistically significant inhibitory effect; also recorded: Yes^f
same,Decreased Erosion Size (statistically significant decrease in size of area of joint erosion),[2]; 10 mg/kg PO BID,Yes^c
same,"SDCES (Significant Decrease In Cartilage Erosion Severity), Ridit analysis",[2]; 10 mg/kg PO BID,significantly decrease cartilage erosion severity; also recorded: statistically significant inhibitory effect; also recorded: Yes^e
same,decrease in total erosion area (regardless of grade),"[2]; 10 mg/kg PO b.i.d. 28 days, dose-response experiment (FIG. 5), statistically significant",62.4%
same,Decreased Erosion Size (statistically significant decrease in size of area of joint erosion),[2]; [4],No
same,"SDCES (Significant Decrease In Cartilage Erosion Severity), Ridit analysis",[2]; [4],significantly decrease cartilage erosion severity; also recorded: significantly decreased the degree of structural damage to the cartilage; also recorded: statistically significant inhibitory effect; also recorded: Yes^d
same,Decreased Erosion Size (statistically significant decrease in size of area of joint erosion),"[2]; 30 mg/kg PO BID, single-dose-level experiment",No
same,"SDCES (Significant Decrease In Cartilage Erosion Severity), Ridit analysis","[2]; 30 mg/kg PO BID, single-dose-level experiment (p = 0.100)",no statistically significant effect and No^g
same,treated rats with no erosions,"[2]; 30 mg/kg PO b.i.d. 28 days, first experiment, N=12",5 of the 12
same,decrease in total erosion area (regardless of grade),"[2]; 30 mg/kg PO b.i.d. 28 days, first experiment, not statistically significant (p=0.179)",43%
same,effect on blood pressure,[3],no effect or perhaps even slightly (1-5 mmHg) decreases
